For 15 compounds, IC50 and inhibition results are on record in US10501449B2 (priority 2018, dated 2019).

Read-outs that look alike come from different tables or passages of the source.

The target of series [1] is T1, hROMK (human Kir1.1) (Homo sapiens (Human), UniProt P48048). Nature of the series: cell-based. It counts as cell-based. The note with it: whole-cell manual patch clamp, CHO T-Rex hROMK stable cell line, voltage step to -120 mV, Ba2+-subtracted hROMK current; read-out: ROMK EP IC50. (In general: Patch clamp records ionic current or voltage across a cell membrane.)
T1 sequence (P48048 whole entry): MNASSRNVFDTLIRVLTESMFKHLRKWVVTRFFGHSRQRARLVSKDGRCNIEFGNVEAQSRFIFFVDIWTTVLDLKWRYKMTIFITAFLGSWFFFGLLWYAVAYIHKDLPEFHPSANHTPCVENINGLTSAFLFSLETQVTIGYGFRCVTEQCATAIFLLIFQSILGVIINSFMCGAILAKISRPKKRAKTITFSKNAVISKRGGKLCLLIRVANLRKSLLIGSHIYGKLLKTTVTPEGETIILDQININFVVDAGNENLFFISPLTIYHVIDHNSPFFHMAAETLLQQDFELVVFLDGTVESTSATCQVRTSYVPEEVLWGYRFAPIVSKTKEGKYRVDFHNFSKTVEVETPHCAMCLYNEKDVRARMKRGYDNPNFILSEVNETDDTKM
Method: ROMK Manual Patch Clamp Assay
Cell culture conditions: Cells were maintained in conditions similar to those for Thallium flux assay. hROMK channel expression was induced by adding 0.6 μg/ml of Doxycycline 16-24 hrs prior to the experiments. On the day of experiment, the cells were dissociated using Versene, resuspended in growth media and plated onto coverslips 15 minutes prior to use.
Electrophysiology: The coverslip plated with cells was placed in the experiment chamber perfused with bath solution composed of (in mM): 135 NaCl, 5 KCl, 2 CaCl2, 1 MgCl2, 10 HEPES, 5 Glucose (pH 7.4). Patch pipettes with resistance between 2-5 Megaohms, when filled with a solution containing (in mM): 135 KCl, 1 EGTA, 1 MgCl2, 10 HEPES, 2 Na2ATP (pH 7.3), were used to form gigaseals. The cells were voltage clamped at −75 mV in whole-cell configuration using an Axopatch 200b or Multiclamp 700b (Molecular Devices) amplifier controlled by pClamp Software (Molecular Devices). The current was recorded by applying a voltage step to −120 mV every 10 seconds. […] At the end of the experiment, the cells were perfused with bath solution containing 2 mM Ba^2+ to isolate the contribution of hROMK current.
Data analysis: Raw current values (5 traces each for control, different compound concentration and Ba^2+ treatment groups) were exported from Clampfit into Microsoft Excel where the current remaining after application of Ba^2+ was subtracted from raw current to obtain hROMK specific current.
Series [2] has as its target T1, hROMK (human Kir1.1). The experiment in a line: cell-based. The note with it: CHO T-Rex hROMK stable cell line; thallium flux; 10-point concentration response curve; read-out: Human ROMK Th Flux IC50.
Another series concerns the target hERG channels (Homo sapiens (Human), UniProt Q12809). The experiment in a line: hERG Manual Patch Clamp Assay. Format: cell-based. The settings on record: human, HEK 293 cells stably expressing hERG channels, pH 7.4, 1 uM, read-out: hERG EP % Inh @ 1 uM. For orientation: hERG is a cardiac potassium channel; its block is linked to QT prolongation.

Sequence of hERG channels (Q12809 whole entry): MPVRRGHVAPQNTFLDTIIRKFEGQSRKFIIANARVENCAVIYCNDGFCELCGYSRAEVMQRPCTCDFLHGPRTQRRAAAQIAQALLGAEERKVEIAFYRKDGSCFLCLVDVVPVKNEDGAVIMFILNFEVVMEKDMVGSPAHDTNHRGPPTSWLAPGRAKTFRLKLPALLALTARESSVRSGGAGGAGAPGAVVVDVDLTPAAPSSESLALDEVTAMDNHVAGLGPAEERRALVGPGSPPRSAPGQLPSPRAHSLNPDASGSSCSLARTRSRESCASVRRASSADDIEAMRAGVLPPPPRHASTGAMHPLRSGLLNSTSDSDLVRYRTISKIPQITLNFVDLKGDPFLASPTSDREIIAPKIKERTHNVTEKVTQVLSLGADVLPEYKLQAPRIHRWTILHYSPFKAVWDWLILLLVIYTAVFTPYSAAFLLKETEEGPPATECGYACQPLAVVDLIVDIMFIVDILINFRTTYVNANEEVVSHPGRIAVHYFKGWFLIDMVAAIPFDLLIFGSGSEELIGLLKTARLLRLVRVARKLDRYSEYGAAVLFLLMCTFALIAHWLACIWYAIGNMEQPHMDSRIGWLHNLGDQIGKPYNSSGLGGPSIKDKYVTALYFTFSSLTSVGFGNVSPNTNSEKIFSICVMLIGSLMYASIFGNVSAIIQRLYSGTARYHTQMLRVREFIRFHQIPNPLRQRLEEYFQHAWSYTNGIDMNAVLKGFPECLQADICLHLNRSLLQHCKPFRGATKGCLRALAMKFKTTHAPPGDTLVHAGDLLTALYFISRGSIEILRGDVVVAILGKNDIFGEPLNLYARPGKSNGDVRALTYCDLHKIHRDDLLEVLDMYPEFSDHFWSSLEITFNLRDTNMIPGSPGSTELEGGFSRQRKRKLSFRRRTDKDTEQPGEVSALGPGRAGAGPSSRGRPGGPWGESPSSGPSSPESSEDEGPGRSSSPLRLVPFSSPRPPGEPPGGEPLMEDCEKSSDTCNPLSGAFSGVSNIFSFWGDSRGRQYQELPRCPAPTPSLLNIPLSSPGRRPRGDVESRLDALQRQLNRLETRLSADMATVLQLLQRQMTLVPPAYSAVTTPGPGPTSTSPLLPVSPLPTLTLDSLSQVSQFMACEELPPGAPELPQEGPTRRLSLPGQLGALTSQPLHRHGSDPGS
Method for hERG channels: hERG electrophysiology assay: The experimental compounds were assessed for hERG activity on HEK 293 cells stably expressing hERG channels using patch clamp technique. Coverslips plated with hERG expressing cells were placed in the experimental chamber and were perfused with a solution composed of (in mM): 140 NaCl, 4 KCl, 1.8 CaCl2, 1 MgCl2, 10 Glucose, 10 HEPES (pH 7.4, NaOH) at room temperature. Borosilicate patch pipettes had tip resistances of 2-4 Mohms when filled with an internal solution containing: 130 KCl, 1 MgCl2, 1 CaCl2, 10 EGTA, 10 HEPES, 5 ATP-K2 (pH 7.2, KOH). The cells were clamped at −80 mV in whole cell configuration using an Axopatch 200B (Axon instruments, Union City, Calif.) patch clamp amplifier controlled by pClamp (Axon instruments) software. Upon formation of a gigaseal, the following voltage protocol was repeatedly (0.05 Hz) applied to record tail currents: depolarization step from −80 mV to +20 mV for 2 seconds followed by a hyperpolarization step to −65 mV (3 seconds) to elicit tail currents. Compounds were applied after stabilization of tail current. First, tail currents were recorded in presence of extracellular solution alone (control) and subsequently, in extracellular solution containing increasing compound concentrations. Each compound concentration was applied for 2-5 minutes. The percentage inhibition at each concentration was calculated as reduction in peak tail current with respect to the peak tail current recorded in the presence of control solution. Data analysis was performed in a custom made template. The percent inhibitions at different concentrations were plotted to obtain a concentration response curve, which was subsequently fitted with a four parameter equation to calculate hERG IC50 value.

Broadly, the IC50 is the concentration needed to halve the response being measured. In the case of `Cc1cc(-n2ncc(CN3CCN[C@H](c4ccc5c(c4C)COC5=O)C3)n2)nc(C)c1C#N` [Example 184-I, (R)-2,4-dimethyl-6-(4-((3-(4-methyl-1-oxo-1,3-dihydroisobenzofuran-5-yl)piperazin-1-yl)methyl)-2H-1,2,3-triaozl-2-yl)nicotinonitrile], the results for the IC50 at hROMK (human Kir1.1) [1] and at hROMK (human Kir1.1) [2] were 10 nM and 30 nM, respectively. In addition, the inhibition at 1 µM on hERG channels was 6.1%.

In the case of `COc1cc(-n2cc(CN3CCN[C@H](c4ccc5c(c4C)COC5=O)C3)nn2)nc(C)c1C#N` [Example 187-I, (R)-4-methoxy-2-methyl-6-(4-((3-(4-methyl-1-oxo-1,3-dihydroisobenzofuran-5-yl)piperaizn-1-yl)methyl)-1H-1,2,3-triazol-1-yl)nicotinonitrile], the IC50 amounted to 25 nM on hROMK (human Kir1.1) [1] and 43 nM on hROMK (human Kir1.1) [2]. For the same compound, the inhibition at 1 µM on hERG channels worked out at 11%.

With `COc1cc(-n2ncc(CN3CCN[C@H](c4ccc5c(c4C)COC5=O)C3)n2)nc(C)c1C#N` [Example 188-I, (R)-4-methoxy-2-methyl-6-(4-((3-(4-methyl-1-oxo-1,3-dihydroisobenzofuran-5-yl)piperazin-1-yl)methyl)-2H-1,2,3-triazol-2-yl)nicotinonitrile], the IC50 is 18 nM at hROMK (human Kir1.1) [1] and 37 nM on hROMK (human Kir1.1) [2]. The inhibition at 1 µM at hERG channels worked out at 18%.

As for `COc1nc(-n2cc(CN3CCN[C@H](c4ccc5c(c4C)COC5=O)C3)nn2)cc(C)c1C#N` [Example 189-I, (R)-2-methoxy-4-methyl-6-(4-((3-(4-methyl-1-oxo-1,3-dihydroisobenzofuran-5-yl)piperazin-1-yl)methyl)-1H-1,2,3-triazol-1-yl)nicotinonitrile], the results for the IC50 at hROMK (human Kir1.1) [1] and at hROMK (human Kir1.1) [2] were 17 nM and 25 nM, respectively. Also, the inhibition at 1 µM at hERG channels is 8.9%.

For the compound `Cc1cc(-c2nnc(CN3C[C@@H](c4ccc5c(c4C)COC5=O)N[C@@H](C)C3)o2)ncc1C#N` [Example 191-I, 4-methyl-6-(5-(((3S,5R)-3-methyl-5-(4-methyl-1-oxo-1,3-dihydroisobenzofuran-5-yl)piperazin-1-yl)methyl)-1,3,4-oxadiazol-2-yl)nicotinonitrile], the IC50 at hROMK (human Kir1.1) [1] came to 21 nM; at hROMK (human Kir1.1) [2], 29 nM. For the same compound, the inhibition at 1 µM at hERG channels worked out at 4.3%.

Consider `Cc1cc(-c2cc(CN3CC[C@@H](O)[C@H](c4ccc5c(c4C)COC5=O)C3)on2)ncc1C#N` [Example 193-I, 6-(5-(((3R,4R)-4-hydroxy-3-(4-methyl-1-oxo-1,3-dihydroisobenzofuran-5-yl)piperidin-1-yl)methyl)isoxazol-3-yl)-4-methylnicotinonitrile], for which the half-inhibitory concentration (IC50) on hROMK (human Kir1.1) [1] was 20 nM; at hROMK (human Kir1.1) [2], 44 nM. Besides, at hERG channels, the inhibition at 1 µM was determined as 14%.

As for `Cc1cc(-n2cc(CN3C[C@H](CO)N(C)[C@H](c4ccc5c(c4C)COC5=O)C3)cn2)ncc1C#N` [Example 195-I, 6-(4-(((3R,5R)-3-(hydroxymethyl)-4-methyl-5-(4-methyl-1-oxo-1,3-dihydroisobenzofuran-5-yl)piperaizn-1-yl)methyl)-1H-pyrazol-1-yl)-4-methylnicotinonitrile], the IC50 on hROMK (human Kir1.1) [1] is 79 nM; on hROMK (human Kir1.1) [2], 66 nM. Besides, the inhibition at 1 µM at hERG channels amounted to 5.9%.

As to `COc1cc(-n2cc(CN3C[C@@H](c4ccc5c(c4C)COC5=O)N[C@@H](C)C3)cn2)ncn1` [Example 207-I, 5-((2R,6S)-4-((1-(6-methoxypyrimidin-4-yl)-1H-pyrazol-4-yl)methyl)-6-methylpiperazin-2-yl)-4-methylisobenzofuran-1(3H)-one], the IC50 at hROMK (human Kir1.1) [1] was determined as 18 nM; on hROMK (human Kir1.1) [2] it was 53 nM. For the same compound, the inhibition at 1 µM on hERG channels worked out at 10%.

For the compound `Cc1cc(-c2cc(CN3C[C@@H](c4ccc5c(c4C)COC5=O)N[C@@H](C)C3)no2)ncc1C#N` [Example 210-I, 4-methyl-6-(3-(((3S,5R)-3-methyl-5-(4-methyl-1-oxo-1,3-dihydroisobenzofuran-5-yl)piperazin-1-yl)methyl)isoxazol-5-yl)nicotinonitrile], the IC50 on hROMK (human Kir1.1) [1] turned out to be 20 nM; at hROMK (human Kir1.1) [2] it was 41 nM. The inhibition at 1 µM on hERG channels is 5.2%.

Regarding `Cc1cn(-c2ncc(CN3CCN[C@H](c4ccc5c(c4C)COC5=O)C3)cn2)cn1` [Example 216-I], the values for the IC50 at hROMK (human Kir1.1) [1] and on hROMK (human Kir1.1) [2] were 14 nM and 25 nM, respectively. Further, the inhibition at 1 µM at hERG channels was determined as 5.6%.

Take `Cc1nn(-c2ncc(CN3CCN[C@H](c4ccc5c(c4C)COC5=O)C3)cn2)cc1C#N` [Example 221-I, (R)-3-methyl-1-(5-((3-(4-methyl-1-oxo-1,3-dihydroisobenzofuran-5-yl)piperazin-1-yl)methyl)pyrimidin-2-yl)-1H-pyraozle-4-carbonitrile]: the IC50 at hROMK (human Kir1.1) [1] is 13 nM; on hROMK (human Kir1.1) [2], 22 nM. The inhibition at 1 µM on hERG channels was 5.4%.

For `CCc1nn(-c2ncc(CN3CCN[C@H](c4ccc5c(c4C)COC5=O)C3)cn2)cc1C#N` [Example 228-I, (R)-3-ethyl-1-(5-((3-(4-methyl-1-oxo-1,3-dihydroisobenzofuran-5-yl)piperazin-1-yl)methyl)pyrimidin-2-yl)-1H-pyrazole-4-carbonitrile], the IC50 on hROMK (human Kir1.1) [1] amounted to 20 nM; on hROMK (human Kir1.1) [2] it was 14 nM. Further, on hERG channels, the inhibition at 1 µM is 16%.

As to `Cc1nc(-n2cc(CN3CCN[C@H](c4ccc5c(c4C)COC5=O)C3)cn2)ncc1C#N` [Example 230-I, (R)-4-methyl-2-(4-((3-(4-methyl-1-oxo-1,3-dihydroisobenzofuran-5-yl)piperazin-1-yl)methyl)-1H-pyrazol-1-yl)pyrimidine-5-carbonitrile], the half-maximal inhibitory concentration (IC50) was found to be 19 nM on hROMK (human Kir1.1) [1] and 32 nM on hROMK (human Kir1.1) [2]. In addition, the inhibition at 1 µM at hERG channels worked out at 2.2%.

`Cc1cc(-n2cc(CN3CC(C)O[C@H](c4ccc5c(c4C)COC5=O)C3)cn2)ncc1C#N` (stereo partly drawn) [Example 240-I, 4-methyl-6-(4-(((6R)-2-methyl-6-(4-methyl-1-oxo-1,3-dihydroisobenzofuran-5-yl)morpholino)methyl)-1H-pyrazol-1-yl)nicotinonitrile]: the IC50 on hROMK (human Kir1.1) [1] was found to be 34 nM; at hROMK (human Kir1.1) [2], 42 nM. Also, the inhibition at 1 µM on hERG channels is 8.3%.

As for `COc1cc(-n2cc(CN3CCN[C@H](c4ccc5c(c4C)COC5=O)C3)nn2)ncc1C#N` [Example 255-I, (R)-4-methoxy-6-(4-((3-(4-methyl-1-oxo-1,3-dihydroisobenzofuran-5-yl)piperazin-1-yl)methyl)-1H-1,2,3-triazol-1-yl)nicotinonitrile], the IC50 on hROMK (human Kir1.1) [1] was 9.1 nM; at hROMK (human Kir1.1) [2] it was 33 nM. In addition, the inhibition at 1 µM at hERG channels worked out at 9.5%.
